Results taken from patent US9765039B2, “Biaryl derivatives as bromodomain inhibitors” (Zenith Epigenetics Ltd., priority 2012, dated 2017).

Columns and labels:
hIL-6 mRNA = test: Inhibition of hIL-6 mRNA transcription in LPS-stimulated U937 macrophages; format: cell-based, human; parameters: key: Active: Compounds with an IC50 value less than 30 μM are deemed to be active; conditions: U937 differentiated into macrophages, 1 h pretreatment, lipopolysaccharide 3 h
Procedure: In this example, hIL-6 mRNA in tissue culture cells was quantitated to measure the transcriptional inhibition of hIL-6 when treated with a compound of the present disclosure.
A human leukemic monocyte lymphoma cell line (U937) was plated (3.2×10^4 cells per well) in a 96-well plate in 100 μL RPMI-1640 containing 10% FBS and penicillin/streptomycin, and differentiated into macrophages for 3 days in 60 ng/mL PMA ([…]) at 37° C. in 5% CO2 prior to the addition of the compound of interest. The cells were pretreated for 1 h with the test compound prior to stimulation with […] lipopolysaccharide from Escherichia coli. The cells were incubated at 37° C. for 3 h before the cells were harvested. At time of harvest, the spent media was removed from the cells and the cells were rinsed in 200 μL PBS. Cell lysis solution (70 μL) was added the cells in each well and incubated for 5-10 min at room temperature, to allow for complete cell lysis and detachment. mRNA was then prepared using the “mRNA Catcher PLUS plate” (Invitrogen), according to the protocol supplied. After the last wash, as much wash buffer as possible was aspirated without allowing the wells to dry. Elution buffer (E3, 70 μL) was then added to each well. mRNA was then eluted by incubating the mRNA Catcher PLUS plate with Elution Buffer for 5 min at 68° C. and then immediately placing the plate on ice.
The eluted mRNA isolated was then used in a one-step quantitative real-time PCR reaction, using components of the Ultra Sense Kit together with Applied Biosystems primer-probe mixes. Real-time PCR data was analyzed, normalizing the Ct values for hIL-6 to an internal control, prior to determining the fold induction of each unknown sample, relative to the control.

c-myc = test: Inhibition of c-myc expression in cancer cell lines (mRNA, real-time PCR); format: cell-based; parameters: key: Active: Compounds with an IC50 value less than 30 μM were deemed to be active; conditions: Human AML MV4-11 cells, 3 hours
Procedure: MV4-11 cells (2.5×10^4 cells) were plated in 96 well U-bottom plates with test compound or DMSO (0.1%), and incubated for 3 hours at 37° C. Cells were then harvested by centrifugation, lysed, and mRNA was isolated using the mRNA catcher plus kit (Invitrogen). Reverse transcription of the mRNA and duplex amplification of the c-myc and cyclophilin cDNAs was performed using the RNA Ultrasense kit (Invitrogen) and a ViiA7 real-time PCR machine (Applied Biosystems). IC50 values were determined from a dose response curve.

Brd4 bromodomain 1 = target: T1, Brd4 bromodomain 1 (Homo sapiens, UniProt O60885); test: Inhibition of tetra-acetylated histone H4 binding to BET bromodomains (TR-FRET); parameters: key: Active: Compounds with an IC50 value less than 30 μM were deemed to be active.; Not Active: Compounds with an IC50 value less than 30 μM were deemed to be active; conditions: first bromodomain of Brd4, tetra-acetylated histone H4 peptide
T1 construct: made in house; host or cells: E. coli BL21(DE3)
Procedure: Proteins were cloned and overexpressed with a N-terminal 6×His tag, then purified by nickel affinity followed by size exclusion chromatography. Briefly, E. coli BL21(DE3) cells were transformed with a recombinant expression vector encoding N-terminally Nickel affinity tagged bromodomains from Brd2, Brd3, Brd4. Cell cultures were incubated at 37° C. with shaking to the appropriate density and induced overnight with IPTG. The supernatant of lysed cells was loaded onto Ni-IDA column for purification. Eluted protein was pooled, concentrated and further purified by size exclusion chromatography. Fractions representing monomeric protein were pooled, concentrated, aliquoted, and frozen at −80° C. for use in subsequent experiments.
Binding of tetra-acetylated histone H4 and BET bromodomains was confirmed by a Time Resolved Fluorescence Resonance Energy Transfer (TR-FRET) method. N-terminally His-tagged bromodomains (200 nM) and biotinylated tetra-acetylated histone H4 peptide (25-50 nM, Millipore) were incubated in the presence of Europium Cryptate-labeled streptavidin (Cisbio Cat. #610SAKLB) and XL665-labeled monoclonal anti-His antibody (Cisbio Cat. #61HISXLB) in a white 96 well microtiter plate (Greiner). For inhibition assays, serially diluted test compound was added to these reactions in a 0.2% final concentration of DMSO. Final buffer concentrations were 30 mM HEPES pH 7.4, 30 mM NaCl, 0.3 mM CHAPS, 20 mM phosphate pH 7.0, 320 mM KF, 0.08% BSA). After 2 hours incubation at room temperature, the fluorescence by FRET was measured at 665 and 620 nm by a SynergyH4 plate reader (Biotek). Illustrative results with the first bromodomain of Brd4 are shown below (Table 1). The binding inhibitory activity was shown by a decrease in 665 nm fluorescence relative to 620 nm. IC50 values were determined from a dose response curve.

Human AML MV-4-11 cells = test: Inhibition of cell proliferation in cancer cell lines (CellTiter Aqueous One); format: cell-based; parameters: key: Active: Compounds with an IC50 value less than 30 μM were deemed to be active.; Not Active: Compounds with an IC50 value less than 30 μM were deemed to be active; conditions: 72 hours
Procedure: MV4-11 cells: 96-well plates were seeded with 5×10^4 cells per well of exponentially growing human AML MV-4-11 (CRL-9591) cells and immediately treated with two-fold dilutions of test compounds, ranging from 30 μM to 0.2 μM. Triplicate wells were used for each concentration, as well as a media only and three DMSO control wells. The cells and compounds were incubated at 37° C., 5% CO2 for 72 hours before adding 20 μL of the CellTiter Aqueous One Solution (Promega) to each well and incubating at 37° C., 5% CO2 for an additional 3-4 hours. The absorbance was taken at 490 nm in a spectrophotometer and the percentage of proliferation relative to DMSO-treated cells was calculated after correction from the blank well. IC50 were calculated using the GraphPad Prism software.

COc1cc(OC)c2c(=O)[nH]c(-c3ccc(OCCN4CCOCC4)c(-c4ccc(S(C)(=O)=O)cc4)n3)nc2c1.Cl [Example 31, 5,7-Dimethoxy-2-(6-(4-(methylsulfonyl)phenyl)-5-(2-morpholinoethoxy)pyridin-2-yl)quinazolin-4(3H)-one hydrochloride]
melting point: 226 to 228 °C | IL-6 activity (IC50 < 30 μM) (hIL-6 mRNA): Active | c-myc activity (IC50 < 30 μM) (c-myc): Active | FRET activity (IC50 < 30 μM) (Brd4 bromodomain 1): Active | cell proliferation activity (IC50 < 30 μM) (Human AML MV-4-11 cells): Not Active

COc1cc(OC)c2c(=O)[nH]c(-c3ccc(OC)c(-c4ccc(S(C)(=O)=O)cc4)n3)nc2c1 [Example 58, 5,7-Dimethoxy-2-(5-methoxy-6-(4-(methylsulfonyl)phenyl)pyridin-2-yl)quinazolin-4(3H)-one]
melting point: 279 to 281 °C | IL-6 activity (IC50 < 30 μM) (hIL-6 mRNA): Active | c-myc activity (IC50 < 30 μM) (c-myc): Not Active | FRET activity (IC50 < 30 μM) (Brd4 bromodomain 1): Active | cell proliferation activity (IC50 < 30 μM) (Human AML MV-4-11 cells): Not Active

COc1ccc(-c2nc3cccc(OC)c3c(=O)[nH]2)nc1-c1ccc([S+](C)[O-])cc1 (stereo not shown) [Example 57, 5-Methoxy-2-(5-methoxy-6-(4-(methylsulfinyl)phenyl)pyridin-2-yl)quinazolin-4(3H)-one]
melting point: 308 to 310 °C | IL-6 activity (IC50 < 30 μM) (hIL-6 mRNA): Active | c-myc activity (IC50 < 30 μM) (c-myc): Not Active | FRET activity (IC50 < 30 μM) (Brd4 bromodomain 1): Active | cell proliferation activity (IC50 < 30 μM) (Human AML MV-4-11 cells): Not Active

CCS(=O)(=O)c1ccc(-c2nc(-c3nc4cc(OC)cc(OC)c4c(=O)[nH]3)ccc2OCCNC(C)C)cc1 [Example 35, 2-(6-(4-(Ethylsulfonyl)phenyl)-5-(2-(isopropylamino)ethoxy)pyridin-2-yl)-5,7-dimethoxyquinazolin-4(3H)-one]
melting point: 195 to 197 °C | IL-6 activity (IC50 < 30 μM) (hIL-6 mRNA): Not Active | c-myc activity (IC50 < 30 μM) (c-myc): Active | FRET activity (IC50 < 30 μM) (Brd4 bromodomain 1): Active | cell proliferation activity (IC50 < 30 μM) (Human AML MV-4-11 cells): Active

COc1cc(OC)c2c(=O)[nH]c(-c3ccc(OC)c(-c4ccc(C(=O)N(C)C)cc4Cl)n3)nc2c1 [Example 56, 3-Chloro-4-(6-(5,7-dimethoxy-4-oxo-3,4-dihydroquinazolin-2-yl)-3-methoxypyridin-2-yl)-N,N-dimethylbenzamide]
melting point: 271 to 272 °C | IL-6 activity (IC50 < 30 μM) (hIL-6 mRNA): Active | c-myc activity (IC50 < 30 μM) (c-myc): Not Active | FRET activity (IC50 < 30 μM) (Brd4 bromodomain 1): Not Active | cell proliferation activity (IC50 < 30 μM) (Human AML MV-4-11 cells): Not Active

COc1cc(OC)c2c(=O)[nH]c(-c3cc(-c4ccc([S+](C)[O-])cc4)cs3)nc2c1 (stereo not shown) [Example 48, 5,7-Dimethoxy-2-(4-(4-(methylsulfinyl)phenyl)thiophen-2-yl)quinazolin-4(3H)-one]
melting point: > 300 °C | IL-6 activity (IC50 < 30 μM) (hIL-6 mRNA): Active | c-myc activity (IC50 < 30 μM) (c-myc): Not Active | FRET activity (IC50 < 30 μM) (Brd4 bromodomain 1): Not Active | cell proliferation activity (IC50 < 30 μM) (Human AML MV-4-11 cells): Not Active

COc1cc(OC)c2c(=O)[nH]c(-c3ccc(OCCNC(C)C)c(-c4ccccc4)n3)nc2c1 [Example 22, 2-(5-(2-(Isopropylamino)ethoxy)-6-phenylpyridin-2-yl)-5,7-dimethoxyquinazolin-4(3H)-one]
melting point: 179 to 180 °C | IL-6 activity (IC50 < 30 μM) (hIL-6 mRNA): Active | c-myc activity (IC50 < 30 μM) (c-myc): Active | FRET activity (IC50 < 30 μM) (Brd4 bromodomain 1): Active | cell proliferation activity (IC50 < 30 μM) (Human AML MV-4-11 cells): Active

COc1cc(OC)c2c(=O)[nH]c(-c3ccc(OC)c(-c4ccc(C(=O)N(C)C)cc4C)n3)nc2c1 [Example 54, 4-(6-(5,7-Dimethoxy-4-oxo-3,4-dihydroquinazolin-2-yl)-3-methoxypyridin-2-yl)-N,N,3-trimethylbenzamide]
melting point: 248 to 251 °C | IL-6 activity (IC50 < 30 μM) (hIL-6 mRNA): Active | c-myc activity (IC50 < 30 μM) (c-myc): Not Active | FRET activity (IC50 < 30 μM) (Brd4 bromodomain 1): Active | cell proliferation activity (IC50 < 30 μM) (Human AML MV-4-11 cells): Not Active

COc1cccc2nc(-c3ccc(OCCNC(C)C)c(-c4ccc(S(C)(=O)=O)cc4)n3)[nH]c(=O)c12 [Example 64, 2-(5-(2-(Isopropylamino)ethoxy)-6-(4-(methylsulfonyl)phenyl)pyridin-2-yl)-5-methoxyquinazolin-4(3H)-one]
melting point: 222 to 223 °C | IL-6 activity (IC50 < 30 μM) (hIL-6 mRNA): Active | c-myc activity (IC50 < 30 μM) (c-myc): Active | FRET activity (IC50 < 30 μM) (Brd4 bromodomain 1): Active | cell proliferation activity (IC50 < 30 μM) (Human AML MV-4-11 cells): Active

COc1cc(OC)c2c(=O)[nH]c(-c3cccc(-c4ccc([S+](C)[O-])s4)c3)nc2c1 (stereo not shown) [Example 51, 5,7-Dimethoxy-2-(3-(5-(methylsulfinyl)thiophen-2-yl)phenyl)quinazolin-4(3H)-one]
melting point: 289 to 290 °C | IL-6 activity (IC50 < 30 μM) (hIL-6 mRNA): Active | c-myc activity (IC50 < 30 μM) (c-myc): Not Active | FRET activity (IC50 < 30 μM) (Brd4 bromodomain 1): Active | cell proliferation activity (IC50 < 30 μM) (Human AML MV-4-11 cells): Not Active

CCS(=O)(=O)c1ccc(-c2nc(-c3nc4cc(OC)cc(OC)c4c(=O)[nH]3)ccc2OCCO)cc1 [Example 34, 2-(6-(4-(Ethylsulfonyl)phenyl)-5-(2-hydroxyethoxy)pyridin-2-yl)-5,7-dimethoxyquinazolin-4(3H)-one]
melting point: 282 to 284 °C | IL-6 activity (IC50 < 30 μM) (hIL-6 mRNA): Active | c-myc activity (IC50 < 30 μM) (c-myc): Active | FRET activity (IC50 < 30 μM) (Brd4 bromodomain 1): Active | cell proliferation activity (IC50 < 30 μM) (Human AML MV-4-11 cells): Active
